Results reported in PMC6857626, “Potent bicyclic inhibitors of malarial cGMP-dependent protein kinase: approaches to combining improvements in cell potency, selectivity and structural novelty” (Bioorganic & Medicinal Chemistry Letters, 2019).
Like-named read-outs stand apart in the source and are kept apart here.

Key:
Plasmodium falciparum = assay: blood stage hypoxanthine incorporation (HXI) cell assay; format: cell-based; conditions: read-out: Pf HXI pEC50 (converted)
Text: [21] Full details on biochemical assay and anti-malarial hypoxanthine incorporation (cell based) assay procedures can be found in reference 16.

[1] = mouse liver microsomal turnover; format: in vitro ADME; conditions: % remaining after 30 min incubation with mouse liver microsomes
Procedure: Microsomal turnover data was obtained using mouse liver microsomes (MLM) obtained from BD Biosciences. The compounds are pre-incubated at 37 °C for 5 minutes with the microsomes and the reaction was initiated by adding an equal volume of NADPH generating solution, also obtained from BD Biosciences. The final compound concentration in the incubation is 1 μM, and the microsomal protein concentration is 0.2 mg/mL. A sample is taken at t=0 and quenched with 2x volume of ice-cold methanol containing an internal standard reference compound (carbamazepine). The reaction is agitated at 37 °C for 30 minutes, when a further sample was taken and quenched in an identical fashion. The samples were centrifuged at 10000 rpm for 10 minutes and the supernatant taken for analysis in triplicate by LC-MS/MS (Agilent Technologies G6410 series, triple quadrupole with MM-ESI ion source) using optimised multiple reaction monitoring (MRM) scans and a standard column gradient on an Acquity UPLC BEH C8 1.7μm column, running acetonitrile and water with 0.05% acetic acid as the mobile phase. The % turnover is obtained by calculating the percentage difference of the peak areas, normalised to the internal standard, at t=0 and t=30. Verapamil is used as the standard compound for this assay.

Kinetic solubility = format: physicochemical
Procedure: The kinetic solubility was measured by diluting a small amount of 10 mM DMSO stock into PBS pH7.4 in a filtration plate at a target concentration of 200 μM giving a final solution composition of 98:2 PBS:DMSO. Each compound was run in triplicate on the same plate with two standard compounds, verapamil and ketoconazole, included per plate. The filtration plate was shaken at 500 rpm for 90 minutes and then filtered under vacuum. The filtrate was sampled and diluted with a DMSO:PBS mixture in a flat bottomed UV plate to give a solution with a composition of PBS:DMSO 80:20. A dilution series for each compound was then created in flat bottomed UV plates in PBS:DMSO 80:20 with concentrations 200 μM, 100 μM, 50 μM, 25 μM, 12.5 μM & […]. The UV absorbance for these solutions was read across 230-400 nm at 1 nm intervals using a TECAN Safire II plate reader and a suitable UV wavelength chosen around the UV maximum of each compound.

[2] = system: HepG2 human liver-derived cells; assay: in vitro cytotoxicity assay in HepG2 cells; format: cell-based; conditions: for EC50: Homo sapiens, read-out: HepG2 pEC50 (converted)
PKG1α(h) = molecular target: T1, PKG1α(h) (Homo sapiens, UniProt Q13976); assay: Millipore Kinase Profiler assay, PKG1α(h); format: biochemical; conditions: for pIC50: PKG1α(h); for activity against human orthologue of PKG: up to a top assay concentration of 1 µM
T1 construct: purchased Millipore (Kinase Profiler service, tested externally)
T1 sequence (Q13976 1-671): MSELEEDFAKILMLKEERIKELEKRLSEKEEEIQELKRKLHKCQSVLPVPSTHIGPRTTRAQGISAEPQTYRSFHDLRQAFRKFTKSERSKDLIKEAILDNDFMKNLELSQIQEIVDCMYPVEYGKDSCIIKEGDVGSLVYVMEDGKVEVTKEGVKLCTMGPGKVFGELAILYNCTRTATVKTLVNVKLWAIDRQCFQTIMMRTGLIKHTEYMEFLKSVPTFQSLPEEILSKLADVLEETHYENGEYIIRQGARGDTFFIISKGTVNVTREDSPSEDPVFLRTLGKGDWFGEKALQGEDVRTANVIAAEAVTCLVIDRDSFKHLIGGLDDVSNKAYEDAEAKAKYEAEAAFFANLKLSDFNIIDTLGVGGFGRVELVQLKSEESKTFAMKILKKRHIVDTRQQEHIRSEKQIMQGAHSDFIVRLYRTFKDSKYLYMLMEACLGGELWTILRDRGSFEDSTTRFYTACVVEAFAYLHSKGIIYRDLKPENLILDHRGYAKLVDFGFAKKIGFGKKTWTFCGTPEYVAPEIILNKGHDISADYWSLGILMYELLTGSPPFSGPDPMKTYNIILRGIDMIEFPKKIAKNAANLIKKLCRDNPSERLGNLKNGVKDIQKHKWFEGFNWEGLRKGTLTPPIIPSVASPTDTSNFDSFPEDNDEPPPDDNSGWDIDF

PKG1β(h) = molecular target: T2, PKG1β(h) (Homo sapiens, UniProt Q13976); assay: Millipore Kinase Profiler assay, PKG1β(h); format: biochemical; conditions: for pIC50: PKG1β(h); for activity against human orthologue of PKG: up to a top assay concentration of 1 µM
T2 construct: purchased Millipore (Kinase Profiler service, tested externally)
T2 sequence (Q13976 1-686 isoform Q13976-2): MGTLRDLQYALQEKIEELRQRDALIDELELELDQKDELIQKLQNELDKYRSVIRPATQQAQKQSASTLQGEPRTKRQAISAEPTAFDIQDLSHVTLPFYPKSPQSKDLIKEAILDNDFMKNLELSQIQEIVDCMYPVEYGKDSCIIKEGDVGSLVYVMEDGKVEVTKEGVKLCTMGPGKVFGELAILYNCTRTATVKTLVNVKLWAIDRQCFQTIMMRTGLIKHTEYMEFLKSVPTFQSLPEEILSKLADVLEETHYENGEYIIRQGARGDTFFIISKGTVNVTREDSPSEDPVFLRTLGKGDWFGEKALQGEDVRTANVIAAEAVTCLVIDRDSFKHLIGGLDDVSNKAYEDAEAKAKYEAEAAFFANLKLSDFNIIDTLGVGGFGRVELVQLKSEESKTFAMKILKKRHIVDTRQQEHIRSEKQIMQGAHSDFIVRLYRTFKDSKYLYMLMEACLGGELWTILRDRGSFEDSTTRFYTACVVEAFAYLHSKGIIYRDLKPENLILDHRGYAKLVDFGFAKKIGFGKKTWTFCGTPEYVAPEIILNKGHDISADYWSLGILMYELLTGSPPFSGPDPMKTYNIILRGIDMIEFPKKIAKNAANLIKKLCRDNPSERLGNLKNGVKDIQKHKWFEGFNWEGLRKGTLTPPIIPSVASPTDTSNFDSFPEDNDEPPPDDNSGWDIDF

PfPKG = PfPKG (Plasmodium falciparum, UniProt Q8I719); assay: biochemical; conditions: for IC50: biochemical assay, read-out: PfPKG pIC50 (converted); for LLE (pIC50 – mLogD): PfPKG pIC50 minus measured logD
Sequence of PfPKG (Q8I719 whole entry): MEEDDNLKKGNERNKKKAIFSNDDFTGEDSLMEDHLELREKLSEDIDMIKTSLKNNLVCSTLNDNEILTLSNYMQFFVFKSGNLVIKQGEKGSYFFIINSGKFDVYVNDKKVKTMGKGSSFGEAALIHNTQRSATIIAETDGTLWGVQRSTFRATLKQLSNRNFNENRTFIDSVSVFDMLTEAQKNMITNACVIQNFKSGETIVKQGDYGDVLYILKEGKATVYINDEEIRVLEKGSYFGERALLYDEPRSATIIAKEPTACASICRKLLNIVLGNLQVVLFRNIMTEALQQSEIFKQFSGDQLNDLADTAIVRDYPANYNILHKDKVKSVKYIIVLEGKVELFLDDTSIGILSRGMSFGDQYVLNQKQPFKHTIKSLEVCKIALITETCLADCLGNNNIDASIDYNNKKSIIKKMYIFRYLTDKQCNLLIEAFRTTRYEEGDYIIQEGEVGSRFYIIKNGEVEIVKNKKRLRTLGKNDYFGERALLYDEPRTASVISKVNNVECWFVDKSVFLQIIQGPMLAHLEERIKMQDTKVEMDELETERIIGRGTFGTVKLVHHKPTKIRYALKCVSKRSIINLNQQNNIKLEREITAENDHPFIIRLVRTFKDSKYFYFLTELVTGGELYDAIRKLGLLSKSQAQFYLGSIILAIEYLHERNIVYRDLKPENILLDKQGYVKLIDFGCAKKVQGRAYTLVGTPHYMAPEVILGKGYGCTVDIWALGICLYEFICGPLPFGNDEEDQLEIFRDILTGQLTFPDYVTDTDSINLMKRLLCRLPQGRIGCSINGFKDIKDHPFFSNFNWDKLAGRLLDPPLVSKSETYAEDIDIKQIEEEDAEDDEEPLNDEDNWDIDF

[3] = Measured logD (shake flask); format: physicochemical; conditions: for mLogD: octanol/PBS
human kinase panel = assay: Kinase selectivity profiling against a human kinase panel; format: biochemical; conditions: single 1 µM concentration
Procedure: [29] Kinase selectivity profiling was carried out at the MRC Protein Phosphorylation Unit at the University of Dundee, U.K. at a single concentration of 1 µM for all three compounds.

[4] = blood stage hypoxanthine incorporation cell assay
[5] = HepG2, concentration at which half of cells remained viable at 48 h

MLM % rem [1] [%] | IC50 (PfPKG) [nM] | LLE (pIC50 – mLogD) (PfPKG) | mLogD [3] | EC50 (Plasmodium falciparum; [4]) [nM] | SMILES | also measured
 | 2.63 | 5.8 | 2.8 | 871 | CN1CCN(c2ccc3nc(-c4ccc(F)cc4)c(-c4ccnc(N)n4)n3c2)CC1 [Compound 23] | in vitro cytotoxicity (in words) [2]: significant activity
88 | 3.63 | 6.2 | 2.2 | 347 | CN1CCC(Nc2ccn3c(-c4ccnc(N)n4)c(-c4ccc(F)cc4)nc3c2)CC1 [Compound 24] | 
54 | 7.41 | 5.9 | 2.2 | 813 | CN(C)CCOc1ccn2c(-c3ccnc(N)n3)c(-c3ccc(F)cc3)nc2c1 [Compound 25] | 
80 | 2.57 | 6.5 | 2.1 |  | CN(C)CCNc1ccn2c(-c3ccnc(N)n3)c(-c3ccc(F)cc3)nc2c1 [Compound 26] | 
93 | 2.75 | 6.4 | 2.2 | 525 | CNc1nccc(-c2c(-c3ccc(F)cc3)nc3cc(NCCN(C)C)ccn23)n1 [Compound 27] | Kin sol (Kinetic solubility; 90 min, pH 7.4): 207 µM; in vitro cytotoxicity (in words) [2]: non-cytotoxic; EC50 [2, 5]: > 20000 nM; pIC50 (PKG1α(h)): < 6; activity against human orthologue of PKG (PKG1α(h)): no activity; pIC50 (PKG1β(h)): < 6; activity against human orthologue of PKG (PKG1β(h)): no activity; selectivity against human kinase panel (in words) (human kinase panel): excellent selectivity profile
65 | 20.4 | 5.8 | 1.9 | 1000 | CN(C)CCc1ccn2c(-c3ccnc(N)n3)c(-c3ccc(F)cc3)nc2c1 [Compound 29] | 

More lines, now with the values behind:

SMILES | MLM % rem [1] [%] | IC50 (PfPKG) [nM] | LLE (pIC50 – mLogD) (PfPKG) | mLogD [3] | EC50 (Plasmodium falciparum; [4]) [nM] | also measured
CN1CCN(c2ccc(Nc3nccc(-c4c(-c5ccc(F)cc5)nc5ccccn45)n3)cc2)CC1 [Compound 1] | 65 |  |  |  |  | EC50 (Plasmodium falciparum): 115 nM
CN(C)Cc1ccn2c(-c3ccnc(N)n3)c(-c3ccc(F)cc3)nc2c1 [Compound 2] |  |  |  |  |  | EC50 (Plasmodium falciparum): 363 nM; Kin sol (Kinetic solubility; kinetic solubility, PBS pH7.4): 200 µM; EC50 ([2]; HepG2, 48 h): > 20000 nM; pIC50 (PKG1α(h)): < 6; activity against human orthologue of PKG (PKG1α(h)): no activity; pIC50 (PKG1β(h)): < 6; activity against human orthologue of PKG (PKG1β(h)): no activity
Cc1nc2cc(CN(C)C)ccn2c1-c1ccnc(N)n1 [Compound 7] |  | 57.5 |  |  |  | 
CN(C)Cc1ccn2c(-c3ccnc(N)n3)c(C(F)(F)F)nc2c1 [Compound 8] |  | 148 |  |  |  | 
CN(C)Cc1ccn2c(-c3ccnc(N)n3)c(C3CC3)nc2c1 [Compound 9] |  | 35.5 | 5.8 | 1.7 |  | 
CC(C)Nc1nccc(-c2c(C3CC3)nc3cc(CN(C)C)ccn23)n1 [Compound 10] |  | 43.7 | 4.4 | 3.0 |  | 
CN(C)Cc1ccn2c(-c3ccnc(Nc4ccccn4)n3)c(C3CC3)nc2c1 [Compound 11] |  | 8.71 |  | 2.5 | 1740 | 
CN(C)Cc1ccn2c(-c3ccnc(Nc4ccc(N5CCN(C)CC5)cc4)n3)c(C3CC3)nc2c1 [Compound 12] |  | 7.24 | 6.0 | 2.1 | 112 | 
CN(C)Cc1ccn2c(-c3ccnc(Nc4ccc(N5CCNCC5)cc4)n3)c(C3CC3)nc2c1 [Compound 13] | 53 | 4.47 | 6.8 | 1.5 | 200 | Kin sol (Kinetic solubility; 90 min, pH 7.4): 189 µM; in vitro cytotoxicity (in words) [2]: non-cytotoxic; EC50 [2, 5]: > 10000 nM; selectivity against human kinase panel (in words) (human kinase panel): decreased level of selectivity
CN(C)Cc1cccn2c(-c3ccnc(N)n3)c(-c3ccc(F)cc3)nc12 [Compound 15] |  | 29.5 | 5.9 |  |  | logD at 12 h ([3]; octanol/phosphate buffered saline (PBS), read-out: mLogD): 1.6
CN(C)Cc1ccc2nc(-c3ccc(F)cc3)c(-c3ccnc(N)n3)n2c1 [Compound 16] |  | 51.3 | 5.0 | 2.3 |  | 
CN1CCC(Nc2ccn3c(-c4ccnc(N)n4)c(-c4ccc(F)cc4)nc3c2)C1 (stereo not shown) [Compound 20] |  | 8.51 | 6.0 | 2.1 | 851 | 
CN(C)CCCNc1ccc2nc(-c3ccc(F)cc3)c(-c3ccnc(N)n3)n2c1 [Compound 21] |  | 12.6 | 5.7 | 2.2 |  | 
CN1CCN(c2ccn3c(-c4ccnc(N)n4)c(-c4ccc(F)cc4)nc3c2)CC1 [Compound 22] |  | 3.31 | 5.4 | 3.1 | 263 | in vitro cytotoxicity (in words) [2]: did not
